Source: US9056916B2, “Method and assay kit for detection of toxicity induced by pyrrolizidine alkaloids” (priority 2012, dated 2015)

Experiments:
Type in all cases: binding, rabbit
[1] = system: antiserum II; assay: Competitive ELISA and cross-reactivity test of antiserum II; settings: antiserum II 1:30000, pure PA as competitor
Experimental: In competitive ELISA assay, one hundred microliters of coating antigen, BSA-pyrrole adducts, in PBS buffer was added to wells of a 96-well microtiter plate. The plates were incubated at 4° C. overnight or room temperature for 2 h. Serial dilutions of the competitor, N-acetyl-L-lysine-pyrrole, were prepared in PBST buffer. The resulting solution was mixed (1:1 v/v) with diluted antiserum in 5% nonfat milk dissolved in PBST buffer. The mixture was incubated at 4° C. overnight. The following day, the same procedure as in the titer analysis was followed. The absorbance at dual wavelength (450-650 nm) was read.

[2] = system: purified S-antibody; assay: Competitive Western blot of purified S-antibody; settings: competitor 0.1 mM or 1 mM, concentration-dependent
Experimental: (§1) In Western and competitive Western blot assay, coating antigen was loaded and resolved by 7.5% SDS-PAGE and then transferred to nitrocellulose membranes. Blots were then blocked with 5% nonfat milk in PBST buffer for 1 h at room temperature. Blotted membranes were incubated with 1/4000 dilution of purified S-antibody in PBST buffer with 5% nonfat milk in the absence or 0.1 mM or 1 mM of pyrrole-(SMe)2 at 4° C. overnight. The following day, after washing three times with PBST buffer, membranes were incubated with anti-rabbit IgG-horseradish peroxidase solution (1/5000 in PBST buffer with 5% nonfat milk) for 1 h at room temperature. After washing, protein bands were detected by chemiluminescence with an ECL detection kit. […] Moreover, the immune response was inhibited by pyrrole-containing competitor, pyrrole-(SMe)2, in competitive Western blot assays, and the inhibitory effect was concentration-dependent manner (See FIG. 11).

[3] = system: purified N-antibody; assay: Competitive Western blot of purified N-antibody; settings: competitor 0.1 mM or 1 mM, concentration-dependent
Experimental: as §1, with “N-antibody” for “S-antibody”, “pyrrole-(NHMe)2” for “pyrrole-(SMe)2”, “pyrrole-(NHMe)2,” for “pyrrole-(SMe)2,”, “(FIG. 9).” for “(See FIG. 11).”

**Q.** With `C[C@H]1C(=O)O[C@@H]2CCN3CC=C(COC(=O)[C@](C)(O)[C@]1(C)O)[C@H]23` [monocrotaline] as the compound, how does the “cross-reactivity with antiserum II” value [1] read?
**A.** no cross-reactivity

**Q.** With pyrrole-(SMe)2 as the compound, how does the “inhibition of immune response of S-antibody with BSA-pyrrole adducts” value [2] read?
**A.** inhibited

**Q.** For retrorsine, which “cross-reactivity with antiserum II” value [1] is on record?
**A.** no cross-reactivity

**Q.** For pyrrole-(NHMe)2, which “inhibition of immune response of N-antibody with BSA-pyrrole adducts” value [3] is on record?
**A.** inhibited
